What was measured:
Format in all cases: in vivo
[1] = tested on: Proteus vulgaris ATCC 13315; assay: Efficacy in murine Proteus vulgaris septicemia; conditions: ATCC13315; ICR mice inoculated intraperitoneally with Proteus vulgaris ATCC 13315 at 1×10^8 CFU; administered intravenously 1 hour after inoculation (doses in mg/kg); mortality recorded 7 days; non-linear regression
Protocol: (§1) Efficacy studies were performed in an P. vulgaris murine septicemia model according to models published elsewhere (Goldstein, B. P., G. Candiani, T. M. Arain, G. Romano, I. Ciciliato, M. Berti, M. Abbondi, R. Scotti, M. Mainini, F. Ripamonti, and et al. 1995. Antimicrobial activity of MDL 63,246, a new semisynthetic glycopeptide antibiotic Antimicrob Agents Chemother. 39:1580-1588; Misiek, M., T. A. Pursiano, F. Leitner, and K. E. Price 1973. Microbiological properties of a new cephalosporin, BL-S 339: 7-(phenylacetimidoyl-aminoacetamido)-3-(2-methyl-1,3,4-thiadiazol-5-ylthio methyl)ceph-3-em-4-carboxylic acid Antimicrob Agents Chemother. 3:40-48).
(§2) The compound was dissolved in 10% DMSO, 0.1% Tween 80, 0.9% NaCl solution and administered intravenously at 10 ml/kg at 1 hour after bacterial inoculation. The compound was administered at 20, 10, 5, 2.5, and 1.25 mg/kg. A control with ampicillin was included in the evaluation.
(§3) Male or female ICR mice weighing 24±2 g from MDS Pharma Services were used for the evaluation. Food and water was given ad libitum. Groups of 6 mice weighing 24±g were used for the experiment. Mice were inoculated intraperitoneally with Proteus vulgaris ATCC 13315 at 1×10^8 CFU in 0.5 ml of Brain Heart Infusion Broth (Difco) containing 5% mucin (Sigma). Mortality was recorded once daily for 7 days following bacterial inoculation.

[2] = tested on: Klebsiella pneumoniae ATCC 10031; assay: Efficacy in murine Klebsiella pneumoniae septicemia; conditions: ATCC10031; ICR mice inoculated intraperitoneally with Klebsiella pneumoniae ATCC 10031 at 3×10^7 CFU; administered intravenously 1 hour after inoculation (doses in mg/kg); mortality recorded 7 days; non-linear regression
Protocol: as §1, with “K. pneumoniae” for “P. vulgaris”
as §2
as §3, with “Klebsiella pneumoniae” for “Proteus vulgaris”, “10031” for “13315”, “3×10^7” for “1×10^8”

[3] = tested on: Escherichia coli ATCC 25922; assay: Efficacy in murine E. coli septicemia; conditions: ATCC25922; ICR mice inoculated intraperitoneally with Escherichia coli ATCC 25922 at 4×10^4 CFU; administered intravenously 1 hour after inoculation (doses in mg/kg); mortality recorded 7 days; non-linear regression
Protocol: as §1, with “E. coli” for “P. vulgaris”
The compound was dissolved in 10% DMSO, 0.1% Tween 80, 0.9% NaCl solution and administered intravenously at 10 ml/kg at 1 hour after bacterial inoculation. The compound was administered at 80, 40, 20, 5, 2.5, and 1.25 mg/kg. A control with ampicillin was included in the evaluation.
as §3, with “22±2” for “24±2”, “22+g” for “24±g”, “Escherichia coli” for “Proteus vulgaris”, “25922” for “13315”, “4×10^4” for “1×10^8”

CC1(C)S[C@@H]2[C@H](NC(=O)[C@H](N)c3ccccc3)C(=O)N2[C@H]1C(=O)O [ampicillin]
ED50 [1]: 29.7 mg/kg | ED50 [2]: 6.8 mg/kg | ED50 [3]: 14.1 mg/kg
